Measurements from the supplement of paper PMC10307832.

How the values were obtained:
Assay in all cases: relative viability (nuclei count vs DMSO), 5 days (fraction); higher = more cells survive
RERF-LC-KJ = system: RERF-LC-KJ
In short: (§1)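 Lung cancer cell lines in 1536-well plates were dosed by pin tool the day after seeding, either with one drug alone or with a fixed anchor-drug dose plus five library-drug doses (not always all listed) in √10 steps. After 5 days, cells were fixed and their nuclei stained in one step (final 0.05% Triton X-100, 1% formaldehyde, 1 ug/ml Hoechst), then counted on 4× images. Relative viability is the nuclei count in treated wells divided by that in vehicle wells. Values are medians of duplicate plates.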

LOU-NH91 = system: LOU-NH91
In short: as §1

HOP-62 = system: HOP-62
In short: as §1

NCI-H1437 = system: NCI-H1437
In short: as §1

NCI-H2085 = system: NCI-H2085
In short: as §1

LCLC-97TM1 = system: LCLC-97TM1
In short: as §1

HCC-78 = system: HCC-78
In short: as §1

NCI-H1792 = system: NCI-H1792
In short: as §1

ABC-1 = system: ABC-1
In short: as §1

UMC-11 = system: UMC-11
In short: as §1

NCI-H1755 = system: NCI-H1755
In short: as §1

Q: For O=C(O)CCCCC(CCSCc1ccccc1)SCc1ccccc1 (configuration not stated) [CPI-613] + CS(=O)(=O)CCNCc1ccc(-c2ccc3ncnc(Nc4ccc(OCc5cccc(F)c5)c(Cl)c4)c3c2)o1 [Lapatinib] (partner 2 µM), which relative viability (RERF-LC-KJ; first compound 50 µM) is on record?
A: Its relative viability is 0.782.

Q: What about the relative viability (RERF-LC-KJ; first compound 158.11 µM) of the same compound?
A: Its relative viability is 0.854.

Q: And the relative viability (RERF-LC-KJ; first compound 500 µM)?
A: Its relative viability is 0.819.

Q: What about the relative viability (LOU-NH91; first compound 5 µM) of the same compound?
A: Its relative viability is 0.79.

Q: And the relative viability (LOU-NH91; first compound 15.81 µM)?
A: The relative viability was 0.722.

Q: And the relative viability (LOU-NH91; first compound 50 µM)?
A: The relative viability was 0.834.

Q: And the relative viability (LOU-NH91; first compound 158.11 µM)?
A: Its relative viability is 0.739.

Q: What about the relative viability (LOU-NH91; first compound 500 µM) of the same compound?
A: Its relative viability is 0.699.

Q: What about the relative viability (HOP-62; first compound 5 µM) of the same compound?
A: The relative viability was 1.06.

Q: And the relative viability (HOP-62; first compound 15.81 µM)?
A: The relative viability was 0.855.

Q: And the relative viability (HOP-62; first compound 50 µM)?
A: Its relative viability is 0.935.

Q: And the relative viability (HOP-62; first compound 158.11 µM)?
A: The relative viability was 0.804.

Q: What about the relative viability (HOP-62; first compound 500 µM) of the same compound?
A: Its relative viability is 0.107.

Q: What about the relative viability (NCI-H1437; first compound 5 µM) of the same compound?
A: Its relative viability is 0.772.

Q: And the relative viability (NCI-H1437; first compound 15.81 µM)?
A: The relative viability was 0.685.

Q: And the relative viability (NCI-H1437; first compound 50 µM)?
A: Its relative viability is 0.746.

Q: And the relative viability (NCI-H1437; first compound 158.11 µM)?
A: Its relative viability is 0.185.

Q: And the relative viability (NCI-H1437; first compound 500 µM)?
A: Its relative viability is 0.0285.

Q: What about the relative viability (NCI-H2085; first compound 5 µM) of the same compound?
A: The relative viability was 0.813.

Q: And the relative viability (NCI-H2085; first compound 15.81 µM)?
A: The relative viability was 0.728.

Q: And the relative viability (NCI-H2085; first compound 50 µM)?
A: The relative viability was 0.709.

Q: What about the relative viability (NCI-H2085; first compound 158.11 µM) of the same compound?
A: Its relative viability is 0.674.

Q: What about the relative viability (NCI-H2085; first compound 500 µM) of the same compound?
A: Its relative viability is 0.516.

Q: And the relative viability (LCLC-97TM1; first compound 5 µM)?
A: Its relative viability is 1.19.

Q: And the relative viability (LCLC-97TM1; first compound 15.81 µM)?
A: Its relative viability is 0.906.

Q: What about the relative viability (LCLC-97TM1; first compound 50 µM) of the same compound?
A: The relative viability was 1.07.

Q: And the relative viability (LCLC-97TM1; first compound 158.11 µM)?
A: Its relative viability is 1.01.

Q: What about the relative viability (LCLC-97TM1; first compound 500 µM) of the same compound?
A: The relative viability was 0.0553.

Q: And the relative viability (HCC-78; first compound 5 µM)?
A: Its relative viability is 0.825.

Q: What about the relative viability (HCC-78; first compound 15.81 µM) of the same compound?
A: The relative viability was 0.591.

Q: What about the relative viability (HCC-78; first compound 158.11 µM) of the same compound?
A: Its relative viability is 0.816.

Q: What about the relative viability (HCC-78; first compound 500 µM) of the same compound?
A: The relative viability was 1.14.

Q: And the relative viability (NCI-H1792; first compound 5 µM)?
A: Its relative viability is 0.841.

Q: And the relative viability (NCI-H1792; first compound 15.81 µM)?
A: Its relative viability is 0.846.

Q: What about the relative viability (NCI-H1792; first compound 50 µM) of the same compound?
A: Its relative viability is 0.838.

Q: What about the relative viability (NCI-H1792; first compound 158.11 µM) of the same compound?
A: The relative viability was 0.72.

Q: And the relative viability (NCI-H1792; first compound 500 µM)?
A: The relative viability was 0.9.

Q: What about the relative viability (ABC-1; first compound 5 µM) of the same compound?
A: Its relative viability is 1.

Q: And the relative viability (ABC-1; first compound 15.81 µM)?
A: The relative viability was 0.948.

Q: And the relative viability (ABC-1; first compound 50 µM)?
A: Its relative viability is 1.33.

Q: What about the relative viability (ABC-1; first compound 158.11 µM) of the same compound?
A: The relative viability was 1.27.

Q: And the relative viability (ABC-1; first compound 500 µM)?
A: Its relative viability is 1.57.

Q: And the relative viability (UMC-11; first compound 5 µM)?
A: Its relative viability is 1.08.

Q: What about the relative viability (UMC-11; first compound 15.81 µM) of the same compound?
A: The relative viability was 1.11.

Q: What about the relative viability (UMC-11; first compound 50 µM) of the same compound?
A: The relative viability was 0.789.

Q: And the relative viability (UMC-11; first compound 158.11 µM)?
A: The relative viability was 0.438.

Q: What about the relative viability (UMC-11; first compound 500 µM) of the same compound?
A: Its relative viability is 0.119.

Q: What about the relative viability (NCI-H1755; first compound 5 µM) of the same compound?
A: Its relative viability is 0.997.

Q: What about the relative viability (NCI-H1755; first compound 15.81 µM) of the same compound?
A: Its relative viability is 0.996.

Q: And the relative viability (NCI-H1755; first compound 50 µM)?
A: Its relative viability is 1.

Q: And the relative viability (NCI-H1755; first compound 158.11 µM)?
A: The relative viability was 0.969.

Q: And the relative viability (NCI-H1755; first compound 500 µM)?
A: The relative viability was 0.232.
